Consider 2 molecules from PMC8011931, “Identification, Structure–Activity Relationship, and Biological Characterization of 2,3,4,5-Tetrahydro-1H-pyrido[4,3-b]indoles as a Novel Class of CFTR Potentiators” (Journal of Medicinal Chemistry, 2020).

Values joined by “and” are separate entries in the source; they are usually repeats but may differ in a detail not shown here. Equal values may be shown once. Read-outs that look alike come from different tables or passages of the source. Where only a bound is given, the exact number is not on record here.

The target in one data set is F508del-CFTR (Homo sapiens, UniProt P13569, DEL508-508). The experiment in a line: HS-YFP assay on F508del-CFTR CFBE41o- cells, acute stimulation. In kind it is cell-based. As to conditions: acute stimulation in the presence of forskolin, Figure 4A. Also noted: expressed in transfected cells. The method, then:
The preliminary activity of these three hits was further evaluated in secondary screening assays. Although featuring the same common scaffold, in order to possibly discriminate the most interesting hit for further structural investigations, the compounds belonging to the family of tetrahydro-γ-carbolines were tested on more relevant cell models. First, the hits were tested on an immortalized bronchial epithelial cell line (CFBE41o-) stably expressing F508del-CFTR and HS-YFP. […]
Prior assay, cells were washed with phosphate-buffered saline (PBS) containing (in mM) 137 NaCl, 2.7 KCl, 8.1 Na2HPO4, 1.5 KH2PO4, 1 CaCl2, and 0.5 MgCl2. […] Cells were then transferred to microplate readers (FluoStar Optima; BMG Labtech, Offenburg, Germany) for CFTR activity determination. The plate readers were equipped with high-quality excitation (HQ500/20X: 500 ± 10 nm) and emission (HQ535/30M: 535 ± 15 nm) filters for YFP (Chroma Technology). The assay consisted of a continuous 14 s fluorescence reading, 2 s before and 12 s after injection of 165 μL of an iodide-containing solution (PBS with Cl^– replaced by I^–; final I^– concentration 100 mM). Data were normalized to the initial background-subtracted fluorescence. […]

Data set [1] in a line: Pharmacokinetics after i.v. and p.o. administration to rats. The note with it: for half-life at 4 h: read-out: half-life (min) (elimination phase). The data set is classed as in vivo, Sprague–Dawley rats. On the procedure: Based on both its biological profile, showing a good efficacy in primary and secondary assays, and preliminary in vitro ADME properties, potentiator 39 was further evaluated in in vivo studies. […]
Male Sprague–Dawley rats, 2 month old and weighing 175–200 g (Charles River, Calco, Italy), were used. Animals were group-housed in ventilated cages and had free access to food and water. They were maintained under a 12 h light/dark cycle (lights on at 8:00 am) at a controlled temperature (21 ± 1 °C) and relative humidity (55 ± 10%). All experiments were carried out in accordance with the guidelines established by the European Communities Council Directive (Directive 2010/63/EU of September 22, 2010) and approved by the National Council on Animal Care of the Italian Ministry of Health. All efforts were made to minimize animal suffering and to use the minimal number of animals required to produce reliable results.
[…] PEG400/Tween 80/saline solution was used as a vehicle at 10/10/80% in volume, respectively. Three animals per dose were treated. Blood samples at 0, 15, 30, 60, 90, 120, 240, and 360 min after administration were collected for p.o. arm. Blood samples at 0, 5, 15, 30, 60, 90, 120, and 240 min after administration were collected for i.v. arm. Plasma was separated from blood by centrifugation for 15 min at 3500 rpm at 4 °C, collected in an Eppendorf tube, and frozen (−80 °C). Control animals treated with vehicle only were also included in the experimental protocol.
Plasma samples were centrifuged at 21,100g for 15 min at 4 °C, while homogenized lung samples were vigorously whirled. An aliquot of each sample was extracted (1:3) with cold CH3CN containing 200 nM of an appropriate internal standard being a close analogue of the parent compound. A calibration curve was prepared in both blank mouse plasma and naïve lung homogenate over a 1 nM to 10 μM range. Three quality controls were prepared by spiking the parent compound in both blank mouse plasma and naïve lung homogenate to 20, 200, and 2000 nM as final concentrations. The calibrators and quality controls were extracted (1:3) with the same extraction solution as the plasma and lung samples. The plasma and lung samples, the calibrators, and quality controls were centrifuged at 3270g for 15 min at 4 °C. The supernatants were further diluted (1:1) with H2O and analyzed by LC/MS–MS on a Waters ACQUITY UPLC/MS TQD system consisting of a TQD mass spectrometer equipped with an electrospray ionization interface and a photodiode array eλ detector. Electrospray ionization was applied in the positive mode. Compound-dependent parameters such as MRM transitions and collision energy were developed for the parent compound and the internal standard. The mobile phase was H2O + 0.1% HCOOH (A) and CH3CN + 0.1% HCOOH (B) at a flow rate of 0.5 mL/min. For plasma samples, the analyses were run on an ACQUITY UPLC BEH C18 (50 × 2.1 mm ID, particle size 1.7 μm) with a VanGuard BEH C18 precolumn (5 × 2.1 mm ID, particle size 1.7 μm) at 40 °C. A linear gradient was applied starting at 30% B with an initial hold for 0.2 min and then 30–100% B in 2 min. For lung samples, the analyses were run on an ACQUITY UPLC BEH C18 (100 × 2.1 mm ID, particle size 1.7 μm) with a VanGuard BEH C18 precolumn (5 × 2.1 mm ID, particle size 1.7 μm) at 40 °C. A linear gradient was applied starting at 30% B with an initial hold for 0.2 min and then 30–100% B in 6 min. All samples (plasma and lung samples, calibrators, and quality controls) were quantified by MRM peak area response factor in order to determine the levels of the parent compound in plasma and lung. The concentrations versus time data were plotted and the profiles were fitted using PK Solutions Excel Application (Summit Research Service, USA) in order to determine the pharmacokinetic parameters.

Setting [2] is: male, Sprague-Dawley, rat, iv, 3 mg/kg, plasma.
The mark [3] stands for this setting: male, Sprague-Dawley, rat, plasma, iv, 3 mg/kg.
The mark [4] stands for this setting: male, Sprague-Dawley, rat, plasma, po, 10 mg/kg.
Setting [5] is: male, Sprague-Dawley, rat, po, 10 mg/kg, plasma.

Chain of F508del-CFTR (P13569 with tags, fused parts or gaps DEL508-508): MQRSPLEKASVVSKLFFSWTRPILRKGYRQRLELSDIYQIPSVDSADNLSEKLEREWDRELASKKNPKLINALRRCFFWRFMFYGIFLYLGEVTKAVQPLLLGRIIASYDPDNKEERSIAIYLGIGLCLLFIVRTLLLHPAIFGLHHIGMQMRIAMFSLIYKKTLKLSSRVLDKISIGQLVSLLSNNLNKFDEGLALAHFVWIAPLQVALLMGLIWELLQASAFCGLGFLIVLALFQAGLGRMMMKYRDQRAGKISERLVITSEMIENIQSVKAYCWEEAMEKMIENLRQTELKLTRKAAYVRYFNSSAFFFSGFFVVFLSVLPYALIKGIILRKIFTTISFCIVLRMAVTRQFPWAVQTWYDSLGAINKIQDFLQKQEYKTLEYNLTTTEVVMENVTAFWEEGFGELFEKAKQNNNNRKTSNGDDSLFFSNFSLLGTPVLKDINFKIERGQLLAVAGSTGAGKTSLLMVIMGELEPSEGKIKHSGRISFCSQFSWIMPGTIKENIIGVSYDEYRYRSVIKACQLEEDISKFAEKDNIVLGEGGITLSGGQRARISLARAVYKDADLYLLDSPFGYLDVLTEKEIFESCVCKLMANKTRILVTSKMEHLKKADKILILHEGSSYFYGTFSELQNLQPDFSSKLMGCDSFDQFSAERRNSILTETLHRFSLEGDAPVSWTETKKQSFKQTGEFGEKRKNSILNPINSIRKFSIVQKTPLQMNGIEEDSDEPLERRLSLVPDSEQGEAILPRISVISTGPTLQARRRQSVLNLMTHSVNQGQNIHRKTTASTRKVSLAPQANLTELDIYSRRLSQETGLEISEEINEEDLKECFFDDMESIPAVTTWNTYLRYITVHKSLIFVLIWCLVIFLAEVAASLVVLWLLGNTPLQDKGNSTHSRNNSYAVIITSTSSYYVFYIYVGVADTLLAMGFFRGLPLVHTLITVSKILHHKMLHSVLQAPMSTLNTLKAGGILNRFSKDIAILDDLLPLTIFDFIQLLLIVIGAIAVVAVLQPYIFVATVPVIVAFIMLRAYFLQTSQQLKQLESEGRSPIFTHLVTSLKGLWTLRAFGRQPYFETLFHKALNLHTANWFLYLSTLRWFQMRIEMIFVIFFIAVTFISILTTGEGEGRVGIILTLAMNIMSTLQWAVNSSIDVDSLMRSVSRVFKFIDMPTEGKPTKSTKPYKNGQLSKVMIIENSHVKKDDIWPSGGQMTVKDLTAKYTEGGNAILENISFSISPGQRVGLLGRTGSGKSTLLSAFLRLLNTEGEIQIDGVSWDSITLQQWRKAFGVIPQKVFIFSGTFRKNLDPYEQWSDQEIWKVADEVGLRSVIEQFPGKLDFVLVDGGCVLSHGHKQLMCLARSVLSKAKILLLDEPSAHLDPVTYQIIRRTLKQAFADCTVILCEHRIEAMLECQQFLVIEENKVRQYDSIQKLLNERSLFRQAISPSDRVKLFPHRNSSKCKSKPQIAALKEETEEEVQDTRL

As to `COc1ccc2[nH]c3c(c2c1)CN(C(=O)c1cc(C(F)(F)F)[nH]n1)CC3` [Compound 3, (8-Methoxy-1,3,4,5-tetrahydropyrido[4,3-b]indol-2-yl)-[5-(trifluoromethyl)-1H-pyrazol-3-yl]methanone], the “dose-dependent activation of mutant CFTR” value at F508del-CFTR is “the most effective”.

A word on the Cmax: it is the peak of the concentration-time curve. Broadly, the AUC is concentration integrated over time. For orientation: half-life means how long it takes for the measured level to halve. As a reminder, the bioavailability is the share of a dose that reaches the circulation, judged against a reference dose that is usually intravenous. As to `Cc1ccc(F)c2[nH]c3c(c12)CN(C(=O)c1cc(C(F)(F)F)[nH]n1)[C@H](C)C3` [Compound 39, (R)-(6-Fluoro-3,9-dimethyl-1,3,4,5-tetrahydro-2H-pyrido[4,3-b]indol-2-yl)-(5-(trifluoromethyl)-1H-pyrazol-3-yl)methanone], in data set [1] (setting [2]), the Cmax worked out at 2.79 µg/mL and the peak concentration (Cmax) at 4 h came out at 7.3 µM. Besides, in data set [1] (setting [3]), the exposure (AUC) was 2320 ng·h/mL and 6.1 µM·h; the Tmax at 4 h is 5 min; the Vd at 4 h amounted to 2.39 L/kg; the clearance at 4 h worked out at 1.14 L/h/kg. In addition, in data set [1] (setting [3]), the half-life at 4 h turned out to be 89 min. For the same molecule, the bioavailability in data set [1] (male, Sprague-Dawley, rat, plasma, oral, p.o. 10 mg/kg versus i.v. 3 mg/kg, time interval 0–4 h) was around 30%. In data set [1] (setting [4]), the AUC was 2.33 µg·h/mL and the half-life at 4 h was 212 min. Also, the concentration at 6 h in data set [1] (male, Sprague-Dawley, rat, plasma, po, 10 mg/kg, read-out: plasma level at 6 h postadministration) is > 450 ng/mL and ~1.2 µM. The Tmax in data set [1] (male, Sprague-Dawley, rat, plasma, po, 10 mg/kg, read-out: time of maximal plasma concentration) is 2 h. The AUC in data set [1] (male, Sprague-Dawley, rat, plasma, po, 10 mg/kg, time interval 0–4 h) was 6.1 µM·h. Further, the bioavailability at 4 h in data set [1] (male, Sprague-Dawley, rat, plasma, po, p.o. 10 mg/kg versus i.v. 3 mg/kg, time interval 0–4 h) was 30%. In addition, in data set [1] (setting [5]), the Cmax is 0.769 µg/mL and the Cmax at 4 h amounted to 2 µM. For the same molecule, in data set [1] (p.o., 10 mg/kg), the “Tmax” value amounted to 2 h.
